Results as given in publication PMC11073699, “Odorant receptors for floral- and plant-derived volatiles in the yellow fever mosquito, Aedes aegypti (Diptera: Culicidae)” (PLOS ONE, 2024).
Where “and” joins values, the source holds several entries; their conditions need not be identical. Equal values may be shown once.

Tests used:
Type in all cases: cell-based
AaegOR13 = target: T1, AaegOR13 (Aedes aegypti, UniProt Q16Z13); assay: Two-electrode voltage clamp of Xenopus laevis oocytes expressing AaegOR13/Orco (blends, unitary compounds, concentration-response); conditions: unitary compounds; for Normalized response, unitary compounds, Average: average of oocytes 1-7; for Raw data (Responses in nA), unitary compounds of Indoles 1, Alcohols 1, Alcohols 3 / Normalized response, unitary compounds of Indoles 1, Alcohols 1, Alcohols 3: individual oocytes 1-7; for Normalized response, unitary compounds of Indoles 1, Alcohols 1, Alcohols 3: normalized per oocyte
T1 sequence (Q16Z13 1-389): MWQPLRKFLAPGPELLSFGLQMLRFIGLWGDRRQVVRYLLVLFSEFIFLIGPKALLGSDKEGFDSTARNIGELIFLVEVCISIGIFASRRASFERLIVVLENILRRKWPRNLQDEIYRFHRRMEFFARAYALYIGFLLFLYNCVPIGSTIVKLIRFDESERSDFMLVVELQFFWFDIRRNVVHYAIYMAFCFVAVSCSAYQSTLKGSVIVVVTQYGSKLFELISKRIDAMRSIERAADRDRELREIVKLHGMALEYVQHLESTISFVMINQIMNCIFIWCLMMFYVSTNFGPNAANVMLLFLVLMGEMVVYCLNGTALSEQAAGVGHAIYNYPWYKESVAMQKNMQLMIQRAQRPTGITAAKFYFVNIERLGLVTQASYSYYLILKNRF
T1 sequence (Q178U6 1-478 partner): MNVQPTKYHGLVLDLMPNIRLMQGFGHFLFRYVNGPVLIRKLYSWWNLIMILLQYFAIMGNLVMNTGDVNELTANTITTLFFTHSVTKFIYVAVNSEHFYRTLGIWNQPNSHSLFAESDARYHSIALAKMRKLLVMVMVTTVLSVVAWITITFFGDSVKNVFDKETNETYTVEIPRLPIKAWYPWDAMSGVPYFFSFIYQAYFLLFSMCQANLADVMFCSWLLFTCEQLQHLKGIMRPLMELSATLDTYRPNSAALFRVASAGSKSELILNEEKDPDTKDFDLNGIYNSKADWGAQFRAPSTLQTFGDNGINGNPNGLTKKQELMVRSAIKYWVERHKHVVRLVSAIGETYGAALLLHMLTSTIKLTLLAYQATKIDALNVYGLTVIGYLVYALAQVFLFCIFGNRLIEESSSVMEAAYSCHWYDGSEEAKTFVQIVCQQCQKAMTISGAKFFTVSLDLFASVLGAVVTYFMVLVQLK
Text: (§1) The coding regions of ten AaegOR genes of interest (S3 File) and AaegOrco were synthesized by Twist Bioscience (San Francisco, CA, USA) and cloned into the pENTR plasmid. The Gateway LR directional cloning system (Invitrogen Corp., Carlsbad, CA, USA) was utilized to subclone AaegOR coding regions into the pSP64t-RFA oocyte expression plasmid. Plasmids were purified using the GeneJet Plasmid Miniprep Kit (ThermoFisher Scientific, Waltham, MA, USA). Purified plasmids were sequenced in both directions to confirm coding regions.
(§2) Chemical compounds (S6 File) used in the deorphanization of AaegORs were purchased from Acros Organics (Morris, NJ, USA), Alfa Aesar (Ward Hill, MA, USA), and ThermoFisher Scientific (Waltham, MA, USA) at the highest purity available. Compounds were stored as 1M stocks in 100% DMSO. Serial dilutions of each compound were prepared in 10% DMSO and blended by chemical class.
(§3) pSP64t-RFA: AaegOR clones were linearized using Xbal, and cRNAs were synthesized using the mMESSAGE mMACHINE ® SP6 kit (Life Technologies, Carlsbad, CA, USA). Xenopus laevis stage V-VII oocytes purchased from Xenopus1 (Dexter, MI, USA) were stored at 18°C in Incubation medium (ND96 96 with 5% dialyzed horse serum, 50μg/mL gentamycin, 100μg/mL streptomycin, 100μg/mL penicillin, and 550μg/mL sodium pyruvate). 30nL of cRNA was injected into multiple oocytes using a microinjection syringe pump (World Precision Instruments, Sarasota, FL, USA) maintained at 18°C for 48–72 hrs. Odorant blends were perfused across individual oocytes for 10–15 seconds, held at a resting membrane potential of -80 mV using an OC-725C oocyte clamp (Warner Instruments, LLC, Hamden, CT, USA). Induced currents were measured indirectly using the two-electrode voltage clamp technique (TEVC). Following each stimulus, currents were allowed to return to baseline before further stimulation. Data was captured using the Digidata 1550 B digitizer and PClamp10 software (Molecular Devices, San Jose, CA, USA). Concentration-response curves were generated by perfusing unitary odorants over oocytes at increasing concentrations from [10^-3M] to [10^-9M]. Data were analyzed using GraphPad Prism 8 (GraphPad Software Inc., La Jolla, CA, USA). At least two biological replicates were conducted at each concentration and for each compound. Data for at least seven oocytes responding to each compound was analyzed (S7 File).

AaegOR8 = target: T2, AaegOR8 (Aedes aegypti, UniProt Q16MN0); assay: Two-electrode voltage clamp of Xenopus laevis oocytes expressing AaegOR8/Orco (blends, unitary compounds, concentration-response); conditions: for Raw data (Responses in nA) Oocyte 1 / Raw data (Responses in nA) Oocyte 2 / Raw data (Responses in nA) Oocyte 3 / Raw data (Responses in nA) Oocyte 4 / Raw data (Responses in nA) Oocyte 5 / Raw data (Responses in nA) Oocyte 6 / Raw data (Responses in nA) Oocyte 7 / Raw data (Responses in nA) Oocyte 8: Alcohols 2 unitary compounds
T2 sequence (Q16MN0 32-422): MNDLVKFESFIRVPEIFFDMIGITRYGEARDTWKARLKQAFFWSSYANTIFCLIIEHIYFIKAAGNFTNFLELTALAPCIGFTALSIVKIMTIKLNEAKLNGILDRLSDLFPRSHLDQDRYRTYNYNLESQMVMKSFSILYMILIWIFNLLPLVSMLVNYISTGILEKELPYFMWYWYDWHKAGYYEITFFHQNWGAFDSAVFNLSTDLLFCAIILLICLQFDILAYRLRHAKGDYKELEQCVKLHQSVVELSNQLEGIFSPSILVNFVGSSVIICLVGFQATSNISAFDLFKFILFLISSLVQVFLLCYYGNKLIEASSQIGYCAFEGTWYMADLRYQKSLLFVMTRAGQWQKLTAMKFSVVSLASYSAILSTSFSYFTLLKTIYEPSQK
T2 sequence (Q178U6 1-478 partner): T1 sequence (Q178U6 1-478 partner)
Text: as §1, §2, §3

AaegOR15 = target: T3, AaegOR15 (Aedes aegypti, UniProt A0A6B9QIR2); assay: Two-electrode voltage clamp of Xenopus laevis oocytes expressing AaegOR15/Orco (blends, unitary compounds, concentration-response); conditions: for response of OR15 to unitary compounds: AaegOR15/Orco expressing oocytes, TEVC, individual compounds; for Raw data (Responses in nA), compounds of blend Alcohols 2: individual oocytes 1-10 (replicates)
T3 sequence (A0A6B9QIR2 1-390): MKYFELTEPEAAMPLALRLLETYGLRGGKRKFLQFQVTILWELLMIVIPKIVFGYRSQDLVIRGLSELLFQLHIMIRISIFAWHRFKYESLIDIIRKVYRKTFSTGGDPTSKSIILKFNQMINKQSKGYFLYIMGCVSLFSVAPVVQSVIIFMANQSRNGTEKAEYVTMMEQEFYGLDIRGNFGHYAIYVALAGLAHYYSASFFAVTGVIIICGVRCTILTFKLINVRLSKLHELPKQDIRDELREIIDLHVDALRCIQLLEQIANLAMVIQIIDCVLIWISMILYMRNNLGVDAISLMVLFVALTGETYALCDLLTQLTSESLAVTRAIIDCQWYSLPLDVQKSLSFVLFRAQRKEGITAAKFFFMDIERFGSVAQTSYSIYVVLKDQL
T3 sequence (Q178U6 1-478 partner): T1 sequence (Q178U6 1-478 partner)
Text: as §1, §2, §3

[1] = unitary compounds of Alcohols 2

| SMILES | Raw data (Responses in nA) Oocyte 1 (AaegOR8) [nA] | Raw data (Responses in nA) Oocyte 2 (AaegOR8) [nA] | Raw data (Responses in nA) Oocyte 3 (AaegOR8) [nA] | Raw data (Responses in nA) Oocyte 4 (AaegOR8) [nA] | Raw data (Responses in nA) Oocyte 5 (AaegOR8) [nA] | Raw data (Responses in nA) Oocyte 6 (AaegOR8) [nA] | Raw data (Responses in nA) Oocyte 7 (AaegOR8) [nA] | Raw data (Responses in nA) Oocyte 8 (AaegOR8) [nA] | Raw data (Responses in nA), compounds of blend Alcohols 2 (AaegOR15; [1]) | also measured |
| --- | --- | --- | --- | --- | --- | --- | --- | --- | --- | --- |
| C=CC(C)(O)CCC=C(C)C (single isomer, unassigned; (-)) [(-) Linalool] | – | – | – | – | – | – | – | – | – | Normalized response, unitary compounds, Average (AaegOR13): 0.26; Raw data (Responses in nA), unitary compounds of Indoles 1, Alcohols 1, Alcohols 3 (AaegOR13): 0.0 nA (6×) and 5.0 nA; Normalized response, unitary compounds of Indoles 1, Alcohols 1, Alcohols 3 (AaegOR13): 0.0 (6×) and 1.8 |
| CC/C=C\CCO [cis-3-hexen-1-ol] | 0.0 | 0.0 | 0.0 | 0.0 | 5.0 | 0.0 | 10.0 | 0.0 | 20.0 nA and 25.0 nA (2×) and 360.0 nA and 370.0 nA and 350.0 nA and 580.0 nA and 250.0 nA and 520.0 nA and 140.0 nA | response of OR15 to unitary compounds (AaegOR15): additional responses |
| C[C@@H]1CC[C@H]2C(C)(C)[C@H]3C[C@@]12CC[C@@]3(C)O [Cedrol] | 0.0 | 0.0 | 0.0 | 0.0 | 0.0 | 0.0 | 0.0 | 0.0 | 0.0 nA (3×) and 5.0 nA (2×) and 10.0 nA (3×) and 25.0 nA and 20.0 nA | – |
| C=CC(O)CCCCC (stereo not drawn) [1-octen-3-ol] | 190.0 | 160.0 | 280.0 | 780.0 | 980.0 | 2200.0 | 2720.0 | 240.0 | 10.0 nA and 20.0 nA (2×) and 200.0 nA and 230.0 nA and 210.0 nA and 370.0 nA and 110.0 nA and 240.0 nA and 80.0 nA | EC50 (AaegOR8; AaegOR8/Orco expressing oocytes, TEVC, concentration-response of normalized current): 2.14 µM |
| OC1CCCCC1 [cyclohexanol] | 0.0 | 0.0 | 0.0 | 0.0 | 0.0 | 0.0 | 0.0 | 0.0 | 5.0 nA and 10.0 nA and 30.0 nA and 55.0 nA (2×) and 0.0 nA and 40.0 nA (2×) and 80.0 nA and 35.0 nA | – |
| CC1CCCC2(C)CCCCC12O (stereo not drawn) [Geosmin] | 0.0 | 0.0 | 0.0 | 0.0 | 0.0 | 0.0 | 0.0 | 0.0 | – | – |
| CCC(=O)OCCc1ccccc1 [phenethyl propionate] | – | – | – | – | – | – | – | – | – | response of OR15 to unitary compounds (AaegOR15): additional responses; Secondary Ligand (AaegOR15; AaegOR15, secondary ligand identified during the functional characterizations): phenethyl propionate; Normalized response, phenethyl propionate, Average (AaegOR15; average of 7 oocytes, relative to 1-hexanol): 56.0; Raw data (Responses in nA), phenethyl propionate versus 1-hexanol (AaegOR15; separate set of 7 oocytes (replicates)): 10.0 nA and 100.0 nA and 90.0 nA and 70.0 nA (2×) and 40.0 nA (2×) |
| CCC/C=C/C=O [trans-2-hexenal] | 0.0 | 0.0 | 0.0 | 0.0 | 0.0 | 0.0 | 0.0 | 0.0 | 0.0 nA and 15.0 nA and 30.0 nA (2×) and 10.0 nA and 40.0 nA (2×) and 50.0 nA (2×) and 60.0 nA | – |
| CC(C)(C)c1ccc(O)cc1 [4-tert-butylphenol] | – | – | – | – | – | – | – | – | – | Raw data (Responses in nA), unitary compounds of Indoles 1, Alcohols 1, Alcohols 3 (AaegOR13): 10.0 nA and 305.0 nA and 70.0 nA and 85.0 nA and 150.0 nA and 90.0 nA and 55.0 nA |
| CCCCCC=O [hexanal] | – | – | – | – | – | – | – | – | 0.0 nA (2×) and 10.0 nA and 80.0 nA and 85.0 nA and 110.0 nA (2×) and 160.0 nA and 115.0 nA and 40.0 nA | – |
| C=CC(C)(O)CCC=C(C)C (racemic) [(+/-)-linalool] | – | – | – | – | – | – | – | – | 0.0 nA (2×) and 5.0 nA and 10.0 nA (4×) and 20.0 nA and 40.0 nA and 15.0 nA | Normalized response, compounds of blend Alcohols 2, Average (AaegOR15; unitary compounds of Alcohols 2, average of 10 oocytes, 1-hexanol = 100): 2.4; Normalized response, compounds of blend Alcohols 2 (AaegOR15; unitary compounds of Alcohols 2, individual oocytes 1-10, normalized to the largest response of each oocyte (1-hexanol = 100)): 0.0 (2×) and 1.4 and 1.3 and 1.5 and 1.9 and 1.7 and 5.4 and 5.5 and 5.6 |
| O=Cc1c[nH]c2ccccc12 [indole-3-carboxyaldehyde] | – | – | – | – | – | – | – | – | – | Raw data (Responses in nA), unitary compounds of Indoles 1, Alcohols 1, Alcohols 3 (AaegOR13): 0.0 nA (2×) and 5.0 nA (5×) |
| CCC/C=C/CO [trans-2-hexen-1-ol] | 0.0 | 0.0 | 0.0 | 0.0 | 0.0 | 0.0 | 0.0 | 0.0 | 30.0 nA (2×) and 40.0 nA and 310.0 nA and 480.0 nA (2×) and 375.0 nA and 270.0 nA and 440.0 nA and 135.0 nA | response of OR15 to unitary compounds (AaegOR15): additional responses |
| C=CC(C)(O)CCC=C(C)C (single isomer, unassigned; (+)) [(+) Linalool] | – | – | – | – | – | – | – | – | – | Normalized response, unitary compounds, Average (AaegOR13): 0.0; Raw data (Responses in nA), unitary compounds of Indoles 1, Alcohols 1, Alcohols 3 (AaegOR13): 0.0 nA; Normalized response, unitary compounds of Indoles 1, Alcohols 1, Alcohols 3 (AaegOR13): 0.0 |
